Experimental data: patent US20210260057A1, “COMPOSITIONS AND METHODS TARGETING GLUTAMINE AND ITS METABOLISM FOR DIAGNOSING AND TREATING CANCER AND THERAPY-ASSOCIATED SIDE EFFECTS” (CEDARS-SINAI MEDICAL CENTER, priority 2018, published 2021)
“And” between values parts separate entries of the source, which are not always exact repeats. Identical values can stand only once.

Key:
primary CAF = experiment: Macropinocytosis assay (TMR-dextran uptake); assay type: cell-based, human; conditions: EIPA 25 μM, 5-Aza DC 5 μM (FIG. 9A)
Protocol: Macropinocytosis assay. These were performed as described previously (Commisso C, Davidson S M, Soydaner-Azeloglu R G, Parker S J, Kamphorst J J, Hackett S, Grabocka E, Nofal M, Drebin J A, Thompson C B, et al. Macropinocytosis of protein is an amino acid supply route in Ras-transformed cells. Nature. 2013; 497(7451):633-7), briefly fibroblasts which were grown on cover slips, serum-starved for 18 hours. TMR-dextran (1 mg/ml; 70 kDa, […]), which is an established marker of macropinocytosis, was added to serum-free medium for 30 min at 37° C. for macropinosomes labeling (Commisso C, Davidson S M, Soydaner-Azeloglu R G, Parker S J, Kamphorst J J, Hackett S, Grabocka E, Nofal M, Drebin J A, Thompson C B, et al. Macropinocytosis of protein is an amino acid supply route in Ras-transformed cells. Nature. 2013; 497(7451):633-7). […] Images were captured using laser confocal scanning microscopy (Leica) and analyzed via LASX software. […] The fluorescence signals in the cells were imaged using FSX100 (Olympus, USA). To determine whether the internalized albumin is intracellularly degraded, we have utilized a self-quenching red fluorescent dye, where lysosomal proteases enable red fluorescence visualization. Cells were incubated in RPMI media containing DQ-BSA (10 μg/ml) for 30 min and washed twice with PBS and monitored by confocal microscopy.

RASAL3 mRNA in CAF = experiment: RASAL3 mRNA expression (rtPCR) in CAF; assay type: cell-based, human; conditions: 5-day treatment; Bic 10^−5 M, Enza 10^−5 M, R1881 10^−9 M, 5-Aza 5 mmol/L
Protocol: (§1) RNA expression level. All real-time PCR assays were carried out using three technical replicates and three independent cDNA syntheses on a 7500 Real-Time PCR System (Applied Biosystems). Data were normalized using an internal control gene, either GAPDH or β-actin. Relative quantification of expression levels (RQ) was calculated using the ^2-ΔΔCt method.

RASAL3 promoter = experiment: Methylation specific PCR of RASAL3 exon 2 in CAF; assay type: cell-based, human; conditions: CAF after treatment
Protocol: (FIG. 13A) Quantitative rtPCR analysis of RASAL3 in NAF and CAF was performed following 5 day treatment with bicalutamide (Bic, 10^−5 M), enzalutamide (Enza, 10^−5 M), R1881 (10^−9 M), or 5-Azacytidine (5-Aza, […]). RASAL3 expression was normalized GAPDH expression. Data represent the mean±SEM. *P<0.05, ***P<0.001, and ****P<0.0001, by two-way ANOVA followed by multiple comparison. Results are the average of at least three independent experiments. (FIG. 13B) MS-PCR of the RASAL3 exon 2 methylation status in CAF after treatment with enzalutamide, R1881, 5-Azacytidine and bicalutamide was performed. The PCR products in the lanes marked “U” indicate unmethylated templates for RASAL3 gene, whereas the products in the lanes marked “M” indicate methylated templates. Data are representative of three independent experiments.

[1] = test system: prostate cancer (serum PSA); experiment: PSA response of PCa patients on androgen targeted therapy; assay type: in vivo, human; parameters: PSA on treatment: unit not given beside the values; conditions: for PSA on treatment: individual PCa patient on the listed Rx
Excerpt: Plasma glutamine level may be prognostic for ADT sensitivity. Considering the striking finding that glutamine can induce ADT resistance, we tested if glutamine concentrations can be associated with ADT sensitivity in prostate cancer patients. We measured blood plasma glutamine concentrations in 28 PCa patients that received ADT (Table 1). Of note, the specific androgen signaling-axis interventions in the patient pool included, androgen receptor antagonists: bicalutamide, enzalutamide, and apalutamide, as well as androgen synthesis inhibitors: leuprolide, goserelin, triptorelin, and abiraterone.

CWR22Rv1 cells [2] = experiment: 3D organotypic co-culture, epithelial proliferation by FACS (EpCAM+/Ki67+); assay type: cell-based, human; conditions: 3D co-cultures of fibroblasts and CWR22Rv1; P<0.05 (GPNA), P<0.001 (BPTES)
Protocol: (§2) 3D organotypic co-culture. A modified version of the 3D organotypic co-culture system was performed in a collagen matrix similar to that previously reported (Stark H J, Baur M, Breitkreutz D, Mirancea N, and Fusenig N E. Organotypic keratinocyte cocultures in defined medium with regular epidermal morphogenesis and differentiation. J Invest Dermatol. 1999; 112(5):681-91). Matrix were prepared by mixing five volumes of rat tail collagen with two volumes of matrigel in one volume of 10×DMEM medium (GE Healthcare Life Sciences), and one volume of FBS (Atlanta Biologicals). CWR22Rv1 and primary mouse prostatic fibroblasts (WT or RAS^V12) were combined in a 1:3 ratio in the matrix. Nylon squares were coated with collagen and placed on metal grids in a 6-well plate. Matrix plugs containing cells, formed in 96 well plates (150 μl), were transferred onto the nylon squares and media was added to the level of the nylon mesh. Following treatments, the cells were dissociated from the matrix with collagenase and dispase for FACS analysis.

CWR22Rv1 with CAF = experiment: 3D co-cultures of CAF-CWR22Rv1, neuroendocrine gene panel rtPCR; assay type: cell-based, human; conditions: in the context of enzalutamide, 3 days, glutamine free media, well below control levels, F test P<0.0001
Protocol: as §2, §1

[3] = test system: human prostate cancer cells (CWR22Rv1); experiment: Gene expression in prostate cancer cells (FIG. 15A-D); assay type: cell-based; conditions: FIG. 15D
PD1 and CD47 on CWR22Rv1 = experiment: FACS of immune checkpoint proteins in prostate cancer/fibroblast co-culture; assay type: cell-based, human; conditions: CWR22Rv1 co-cultured with wild type or CD105-knockout fibroblasts
[4] = test system: prostate cancer epithelial cells; experiment: ALDH (stem marker) in prostate cancer epithelial cells; assay type: cell-based
[5] = test system: CWR22Rv1 and Ras^V12 mouse fibroblast tissue recombinants; experiment: Orthotopic tissue recombinant xenograft, EIPA treatment; assay type: in vivo; conditions: SCID mice, anterior prostate grafts; EIPA for 1 week from two weeks after grafting, vs vehicle control; P<0.01 (FIG. 2H)
Excerpt: (§3) Tissue recombination mouse models.
To directly determine if Ras signaling confers a tumor supportive role associated with CAF, we used CRISPR/Cas9 to knock out Rasa13 in mouse prostatic fibroblasts. Compared to the expression of Cas9 fibroblasts (control), Ras activity and ERK phosphorylation was elevated in Rasa13-knockout (Rasa13-KO) fibroblasts (FIG. 2D). Rasa13-KO fibroblasts took up TMR dextran, whereas it was undetectable in the control fibroblasts (FIG. 2E). The exogenous expression of active Ras^V12 (Gly^12→Val^12) in wild-type mouse prostatic fibroblasts replicated the downstream ERK activation and macropinocytosis observed in CAF and Rasa13-KO cells (FIG. 2 F,G). Thus, epigenetic RASAL3 silencing of prostatic fibroblasts promoted familiar signaling and macropinocytosis associated with Ras transformation (Commisso et al., 2013). […] To test the role of stromal Ras-mediated macropinocytosis on tumor development, orthotopic PCa xenograft models were used. Tissue recombinants of Ras^V12-expressing fibroblasts and CWR22Rv1 epithelia were grafted into the anterior prostates of SCID mice. Two weeks later, mice were treated with vehicle control or EIPA for 1 week to suppress macropinocytosis (FIG. 2H). […] Thus, glutamine uptake by the tumor was necessary for its expansion.

CWR22Rv1 = experiment: MTT viability assay, CWR22Rv1; assay type: cell-based, human; conditions: CWR22Rv1, 72 hrs incubation with EIPA
Protocol: (§4) (FIG. 10A) The viability of CWR22Rv1 and mouse prostatic fibroblasts (Cas9 control and Rasa13-KO) was measured by MTT assay following 72 hrs incubation with macropinocytotic inhibitor, EIPA. The bar graphs represent the absorbance of the MTT formazan determined at 570 nm from a single experiment representative of a total 3 independent experiments, each performed in quadruplicate. Statistical significance was determined by one-way ANOVA. (FIG. 10B) Quantitation of EpCAM-positive epithelial cells were achieved by FACS of 3D co-cultures of human C4-2B epithelia and wild type (WT) or Ras^V12 mouse fibroblasts. Statistical significance was determined by unpaired t test. (FIG. 10C) Stromal fibroblasts (Cas9 or Rasa13-KO) cultured with CWR22Rv1 epithelia using a standard transwell apparatus. […] Epithelial and stromal cells grown in glutamine free either DMEMF12 or RPMI media. are expressed as mean±SEM of 3 independent experiments. Statistical significance was determined by two-tailed student's t test. **P<0.01, ****P<0.0001.

[6] = test system: mouse prostatic fibroblasts (Cas9 control); experiment: MTT viability assay, control (Cas9 / wild type) fibroblasts; assay type: cell-based; conditions: 72 hrs incubation with EIPA
Protocol: as §4

[7] = test system: Rasa13-KO mouse prostatic fibroblasts; experiment: MTT viability assay, Rasa13-KO fibroblasts; assay type: cell-based; conditions: 72 hrs incubation with EIPA, P<0.001
Protocol: as §4

CWR22Rv1 cells [8] = experiment: Seahorse XF-24 metabolic flux analysis, CWR22Rv1; assay type: cell-based, human; conditions: CWR22Rv1 in Ras^V12 fibroblast-CM; GPNA 10 μM
Protocol: (§5) Seahorse XF-24 metabolic flux analysis. Oxygen consumption rate (OCR, pmol min-1) was measured with the Searhorse Bioscience XF24 extracellular flux analyzer. Cells were incubated in a CO2-free incubator for 1 h at 37° C. to allow for temperature and pH equilibration prior to loading into the XF24 apparatus. Initial assays were performed to optimize cell number, FCCP concentration and oligomycin concentration (data not shown). We used L-Glutamic acid γ-(p-nitroanilide) hydrochloride (GPNA, 10 μM), a specific glutamine […] inhibitor.

C4-2B cells = experiment: Seahorse XF-24 metabolic flux analysis, C4-2B; assay type: cell-based, human; conditions: C4-2B in Ras^V12 fibroblast-CM; GPNA 10 μM
Protocol: as §5

[9] = test system: CWR22Rv1 and CAF tissue recombinants; experiment: Sub-renal capsule tissue recombinant xenograft, intact mice; assay type: in vivo, mouse; conditions: GPNA vs control
Excerpt: as §3

[10] = test system: CWR22Rv1 and CAF tissue recombinants; experiment: Castrate resistant sub-renal capsule xenograft (castration + enzalutamide)
Protocol: Tissue recombination mouse models. Cell recombinants were prepared by mixing 2×10^5 epithelial (CWR22Rv1) cells with 6×10^5 CAFs or stromal cells expressing KRAS^V12 per site in collagen as described before (Banerj ee J, Mishra R, Li X, Jackson R S, 2nd, Sharma A, and Bhowmick N A. A reciprocal role of prostate cancer on stromal DNA damage. Oncogene. 2014; 33(41):4924-31). The mice were either left intact or castrated 1 week after grafting. […] Castrated mice were treated with enzalutamide (5 mg/kg) either alone or in combination with L-glutamic acid Υ-(p-nitroanilide) hydrochloride (GPNA; 10 mg/kg; Sigma-Aldrich) for three weeks. The tumor volumes were measured using digital calipers and calculated using the following formula: length (mm)×width (mm)×width (mm)×0.52. When the mice were sacrificed and tumors were excised and photographed. Formalin-fixed, paraffin-embedded (FFPE) xenograft tumor tissue was sectioned and stained with hematoxylin and eosin (H&E) and staining for chromogranin A, TUNEL, phosphorylated-hi stone H3 and phosphorylated-mTOR.

[11] = castrated, enzalutamide treated mice, addition of GPNA

## Nc1ncn([C@H]2C[C@H](O)[C@@H](CO)O2)c(=O)n1 [5-aza-2′-deoxycytidine]
Primary CAF
  TMR-dextran uptake by CAF (macropinocytosis): inhibited
RASAL3 mRNA in CAF
  RASAL3 mRNA expression in CAF: restored
RASAL3 promoter
  methylation of the RASAL3 promoter (methylation specific PCR): hypomethylation

## C[C@]12CC[C@H](O)CC1=CC[C@@H]1[C@@H]2CC[C@]2(C)C(c3cccnc3)=CC[C@@H]12 [A, Abiraterone]
[1]
  PSA on treatment: 26.2 and 6.4

## O=C(Cc1ccccc1)Nc1nnc(CCSCCc2nnc(NC(=O)Cc3ccccc3)s2)s1 [BPTES, bis-2(5-phenylacetamido-1,3,4-thiadiazol-2-yl)ethyl sulfide]
CWR22Rv1 cells [2]
  epithelial proliferation (Ki-67 staining of EpCAM+ cells, FACS): significantly decreased epithelial proliferation
CWR22Rv1 with CAF
  mRNA expression of the panel of neuroendocrine biomarker genes: significantly reduced
[3]
  enzalutamide-induced TET2 expression: downregulates
PD1 and CD47 on CWR22Rv1
  CD47 expression (FACS): downregulated
  PD1 expression (FACS): downregulated
[4]; epithelial culture without stromal fibroblasts (FIG. 17B)
  enzalutamide-upregulated ALDH: can be limited

## CCN(c1nc(N)c(C(=O)N=C(N)N)nc1Cl)C(C)C [EIPA, 5-(N-ethyl-N-isopropyl) amiloride]
Primary CAF
  TMR-dextran uptake by CAF (macropinocytosis): inhibited
[5]
  tumor size: dramatically reduced tumor size
CWR22Rv1
  viability (MTT): no significant effect
[6]
  viability (MTT): no significant effect
[7]
  viability (MTT): reduced the viability

## N[C@@H](CCC(=O)Nc1ccc([N+](=O)[O-])cc1)C(=O)O [GPNA, L-gamma-glutamyl-p-nitroanilide]
CWR22Rv1 cells [8]
  basal respiration, ATP, and maximal respiration (OCR): restored basal respiration, ATP, and maximal respiration to that observed with wild type fibroblast-CM
C4-2B cells
  basal respiration, ATP, and maximal respiration (OCR): restored basal respiration, ATP, and maximal respiration to that observed with wild type fibroblast-CM
CWR22Rv1 cells [2]
  epithelial proliferation (Ki-67 staining of EpCAM+ cells, FACS): significantly decreased epithelial proliferation
CWR22Rv1 with CAF
  mRNA expression of the panel of neuroendocrine biomarker genes: significantly reduced
[9]; P<0.0001
  mitotic index (phosphorylated-histone H3): reduced
[9]; P<0.001
  tumor volume: reduced tumor volume
[10]; GPNA + ADT vs ADT alone, P<0.001
  cell death (TUNEL): elevated
[10]; GPNA + ADT vs ADT alone, P<0.05
  localization of phosphorylated-mTOR (Ser-2481): reduced
[10]; GPNA + ADT vs androgen signaling blockage alone
  mitotic index (phosphorylated histone H3): did not significantly change
[10]; castrated mice, enzalutamide 5 mg/kg + GPNA 10 mg/kg for three weeks vs ADT alone, P<0.0001
  tumor size: significantly reduced tumor size
[10]; [11]
  chromogranin A expression induced by castration and enzalutamide: reduced chromogranin A expression
  histology (H&E): associated with karyolytic cells

## CCNC(=O)[C@@H]1CCCN1C(=O)[C@H](CCCNC(=N)N)NC(=O)[C@H](CC(C)C)NC(=O)[C@@H](CC(C)C)NC(=O)[C@H](Cc1ccc(O)cc1)NC(=O)[C@H](CO)NC(=O)[C@H](Cc1c[nH]c2ccccc12)NC(=O)[C@H](Cc1c[nH]cn1)NC(=O)[C@@H]1CCC(=O)N1 [L, Leuprolide]
[1]
  PSA on treatment: <0.1 and 7.8 and 0.1 and 1.1 and 1.2 and 0.2
[1]; individual PCa patient, responsiveness to ADT based on serum PSA
  Outcome: Responsive (4×) and Non- (2×)

## CC(O)(CS(=O)(=O)c1ccc(F)cc1)C(=O)Nc1ccc(C#N)c(C(F)(F)F)c1 (stereo not shown) [bicalutamide]
[1]
  PSA on treatment: 11.3

## N[C@@H](CCC(=O)O)C(=O)O [glutamate]
[4]; prostate cancer epithelial cells (FIG. 17A, 17B)
  ALDH (stem marker): upregulates ALDH further
